Measured values from patent US11666596B2, “Nucleotide, polypeptide and applications thereof” (THE FIRST AFFILIATED HOSPITAL, SUN YAT-SEN UNIVERSITY, priority 2017, dated 2023).
Ends that are not written are not given here.

System: U251 cells
Experiment: Verification of ability of micropeptide to enter cells (fluorescence microscopy)
Type: cell-based
Details: FITC-attached micropeptide, 10 μM, 4 hours; all cells in sight were fluorescent; FIG. 4
Procedure: U251 cells were inoculated onto a glass slide at the density of 50%, and different concentrations of PTEN-31aa micropeptide attached with FITC fluorescent groups (the micropeptide was dissolved in DMSO with a concentration being 20 μg/μL, 5 mM) were added to treat cells for 4 hours, then fixed with Faure Marin, and observed and photographed under a fluorescence microscope.

MWRDSLCAAAGYALGAGTRLRSVLSSRKLQP [PTEN-31aa]
ability of micropeptide to enter U251 cells: could enter the U251 cells smoothly
